Columns and labels:
[1] = test system: rumen microflora; assay: Batch culture assay for the degradation of starch (Example 3); type: cell-based, steers
Description: The subject Formula ^IV compound was also compared to monensin in another rumen fluid batch culture test as set forth below. The test was designed to screen compounds for inhibition of starch breakdown by the rumen microflora. […] It is considered more desirable to avoid degradation of starch in the rumen so that it is passed on into the abomasum where it can be digested more efficiently. […] Test Procedure: Animals - Mature fistulated steers were maintained on concentrate, roughage, or concentrate/ roughage (50/50) rations. Animals were fed twice daily at 8:00 A.M. and 4:00 P.M.
Culture Assays - Approximately two liters of rumen fluid were collected from fistulated animals with the use of a hand pump. The rumen fluid, collected in a stoppered flask, was then immediately taken to the laboratory for processing. Samples were taken at 8:00 A.M. just prior to the first feeding or at 1:00 P.M. (ca. 4-5 hours after the first feeding). Rumen fluid was strained through six layers of cotton gauze cloth into a flask that was flushed with C02 gas. The filtrate was centrifuged for 5 minutes at 100 rpm in a Sorvall centrifuge to remove large particulate material. The supernatant was again passed through six layers of gauze into a flask under C02 gas and stoppered.
Batch Culture Assay for the Degradation of Starch - Twenty-five ml of rumen fluid prepared as above was added to serum vials (Wheaton Glass, 100 ml capacity) containing 0.25-1.00% final concentration starch as an energy substrate in 25 ml batch culture assay buffer. The serum vials were sealed under C02 gas phase, and incubations were carried out for 20-24 hours at 39°C on a New Brunswick rotary shaker (250 rpm). Each experimental vial was done in triplicate. The corn starch used in degradation experiments was previously washed with distilled water several times, filtered through an 8 micron (47 mm) Millipore filter, and dried at 90°C for 24 hours.
At intervals of 0 and 24 hours, the entire contents in vials were centrifuged at 250 rpm for 5 minutes. The supernatants were carefully removed with a pipet and the remaining "starch pellets" resuspended in water and passed through borosilicate glass microfiber prefilters (Millipore AP 20-047-00). Filters were dried in an oven for 24 hours at 90°C, cooled and then weighed. The amount of starch remaining after 24 hours' incubation was compared with the amount present at 0 hours and the per cent of substrate degraded calculated.

[2] = Methane production in growing lambs, respiration calorimetry (Example 4); type: in vivo; details: 75 ppm in diet, 3 days treated feed, versus negative control
Description: Animal Test: The object of this test is to determine the effect of the test compound on methane production in growing animals (ruminants). A decrease in methane production is an indication of increased utilization of the animals' feed supply, and possibly an indication of the effectiveness of the compound as a growth promoter.
Test Procedure: The test animals are housed in special respiration calorimetry facilities during the tests so that all metabolic gases can be collected and measured.
Twelve wether lambs, weighing between 20 and 25 kg, were selected from a group of lambs purchased from the California Livestock Marketing Association. The animals were processed according to standard procedures after arrival, and they were ear tagged for identification purposes and weighed prior to being moved to the respiration calorimetry facility.
Experimental Design - The animals were fed 500 grams of a 30% concentrate diet (Table 4) twice daily.
The Formula IV compound was tested in three animals at a level of 75 ppm. The test period was one week. […] Methane production was monitored during this time. […]
Sample Collection and Analysis - Since only the gas data on methane was of interest, urine and feces were collected daily and discarded. […] These samples were analyzed by gas chromatography to get a qualitative measure of […] production. […]

2,2'-(4,5-diphenyl-2H-imidazol-2-ylidene)bispyridine with CuCl2(1/1) [Formula IV Compound]
starch degraded ([1]; 50 ppm, relative to unincubated control rumen fluid batch culture): 28.7%
per cent starch degraded ([1]; 75 ppm, relative to unincubated control): 13.9%
methane production [2]: significant decrease
